According to patent US8399712B2 (priority 2010, dated 2013):

Experiments:
[1] = Relative humidity stability, saturated salt solutions at ambient temperature, XRPD; assay type: physicochemical; details: for Dissociation by XRPD: 75, 94, or 98% RH after four weeks
Description: Upon completion of the duration allowed, the samples were immediately analyzed by XRPD.

[2] = Slurrying in water, resulting solid form; assay type: physicochemical; details: for Behaviour upon slurrying in water: three days
hyperglycemic rats = details: cited from earlier work
[3] = literature (Lopez-Nicolas 2009); cited from earlier work
[4] = literature; cited from earlier work
cancer cell lines = details: in vitro; cited from earlier work
[5] = assay type: physicochemical; details: slurrying in water at ambient, after 5 minutes
[6] = Attempted intrinsic dissolution of cocrystal 3 in 900 mL water; assay type: physicochemical; details: 900 mL water at ambient conditions, after 30 minutes
Description: Intrinsic dissolution in 900 mL water at ambient conditions was also attempted. […] Therefore, a concentration vs. time and intrinsic dissolution rate value were unobtainable at these conditions.

## Cn1c(=O)c2c(ncn2C)n(C)c1=O [caffeine, reference compound]
[1]; 75% RH, 1 week
  Results (form by XRPD): caffeine anhydrous
[1]; 75% RH, 4 weeks
  Results (form by XRPD): caffeine anhydrous
[1]; 75% RH, 1 day
  Results (form by XRPD): caffeine anhydrous
[1]; 75% RH, 3 days
  Results (form by XRPD): caffeine anhydrous
[1]; 75% RH, up to four weeks
  Conversion to hydrate: does not display signs of conversion
[1]; 94% RH
  Conversion to hydrate: between one and three days at 94% RH partial conversion
[1]; 94% RH, 1 week (7 days)
  Results (form by XRPD): caffeine hydrate
[1]; 94% RH, 4 weeks
  Results (form by XRPD): caffeine hydrate
[1]; 94% RH, 1 day
  Results (form by XRPD): caffeine anhydrous
[1]; 94% RH, 3 days
  Results (form by XRPD): caffeine anhydrous/caffeine hydrate
[1]; 98% RH
  Conversion to hydrate: converts to caffeine hydrate in less than one day
[1]; 98% RH, 1 week
  Results (form by XRPD): caffeine hydrate
[1]; 98% RH, 4 weeks
  Results (form by XRPD): caffeine hydrate
[1]; 98% RH, 1 day
  Results (form by XRPD): caffeine hydrate
[1]; 98% RH, 3 days
  Results (form by XRPD): caffeine hydrate

## COc1cc(/C=C/c2ccc(O)cc2)cc(OC)c1.Cn1c(=O)c2c(ncn2C)n(C)c1=O [cocrystal 1 (Form I), pterostilbene:caffeine]
[1]; 75% RH, 1 week
  Results (form by XRPD): cocrystal 1 (Form I), no caffeine hydrate
[1]; 75% RH, 1 week, additional stress at 98% RH
  Results (form by XRPD): cocrystal 1 (Form I), no caffeine hydrate
[1]; 75% RH, 4 weeks
  Results (form by XRPD): cocrystal 1 (Form I), no caffeine hydrate
[1]; 75% RH, 1 day
  Results (form by XRPD): cocrystal 1 (Form I), no caffeine hydrate
[1]; 75% RH, 1 day, additional stress at 98% RH
  Results (form by XRPD): cocrystal 1 (Form I), no caffeine hydrate
[1]; 75% RH, 3 days
  Results (form by XRPD): cocrystal 1 (Form I), no caffeine hydrate
[1]; 94% RH, 1 week (7 days)
  Results (form by XRPD): cocrystal 1 (Form I), no caffeine hydrate
[1]; 94% RH, 4 weeks
  Results (form by XRPD): cocrystal 1 (Form I), no caffeine hydrate
[1]; 94% RH, 1 day
  Results (form by XRPD): cocrystal 1 (Form I), no caffeine hydrate
[1]; 94% RH, 3 days
  Results (form by XRPD): cocrystal 1 (Form I), no caffeine hydrate
[1]; 94% RH, 7 days, additional stress at 98% RH, 4 weeks
  Results (form by XRPD): cocrystal 1 (Form I), no caffeine hydrate
[2]; slurry, 2 days
  Results (form after stress): cocrystal 1 (Form I), no caffeine hydrate
[2]
  Behaviour upon slurrying in water: precipitation of pterostilbene

## CN(C)C(=N)N=C(N)N [metformin]
Hyperglycemic rats
  Decrease of plasma glucose levels: 48%

## COc1cc(/C=C/c2ccc(O)cc2)cc(OC)c1 [pterostilbene, trans-3,5-dimethoxy-4′-hydroxystilbene]
[3]
  Solubility in water: poor solubility in water
[4]
  Bioavailability: poor bioavailability
Cancer cell lines
  Cytotoxic activity against cancer cell lines: demonstrated cytotoxic activity

## pterostilbene:carbamazepine [cocrystal 2]
[1]; 75% RH, 1 week
  Results (form by XRPD): cocrystal 2, no carbamazepine dihydrate
[1]; 75% RH, 4 weeks
  Results (form by XRPD): cocrystal 2, no carbamazepine dihydrate
[1]; 75% RH, 1 day
  Results (form by XRPD): cocrystal 2, no carbamazepine dihydrate
[1]; 75% RH, 3 days
  Results (form by XRPD): cocrystal 2, no carbamazepine dihydrate
[1]; 94% RH, 1 week (7 days)
  Results (form by XRPD): cocrystal 2, no carbamazepine dihydrate
[1]; 94% RH, 4 weeks
  Results (form by XRPD): cocrystal 2, no carbamazepine dihydrate
[1]; 94% RH, 1 day
  Results (form by XRPD): cocrystal 2, no carbamazepine dihydrate
[1]; 94% RH, 3 days
  Results (form by XRPD): cocrystal 2, no carbamazepine dihydrate
[1]; 98% RH, 1 week
  Results (form by XRPD): cocrystal 2, no carbamazepine dihydrate
[1]; 98% RH, 4 weeks
  Results (form by XRPD): cocrystal 2, no carbamazepine dihydrate
[1]; 98% RH, 1 day
  Results (form by XRPD): cocrystal 2, no carbamazepine dihydrate
[1]; 98% RH, 3 days
  Results (form by XRPD): cocrystal 2, no carbamazepine dihydrate
[2]
  Behaviour upon slurrying in water: stable

## COc1cc(/C=C/c2ccc(O)cc2)cc(OC)c1.Cn1c(=O)c2c(ncn2C)n(C)c1=O [cocrystal 1, pterostilbene:caffeine]
[1]
  Dissociation by XRPD: no dissociation

## pterostilbene:glutaric acid [cocrystal 3]
[5]
  XRPD result of attempted powder dissolution: crystalline pterostilbene
[6]
  XRPD result of attempted intrinsic dissolution: crystalline pterostilbene
[1]
  Dissociation by XRPD: no dissociation
